Experimental data reported in patent US10870638B2, “Pyridazinone compound or its salt, and herbicide containing it” (ISHIHARA SANGYO KAISHA, LTD., priority 2016, dated 2020).

Columns and labels:
Assay type in all cases: in vivo
Details in all cases: active ingredient amount 31 g/ha, 14th day after application
[1] = test system: barnyardgrass (Echinochloa crus-qalli L.); assay: Test Example 1: foliar treatment, growth inhibition rate on 14th day
Method in brief: (§1)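 Using a small sprayer, formulated compound in water (0.1 vol % surfactant, 1,000 L/ha) was applied to seedlings grown from seed in upland soil. Fourteen days on, growth state was observed and expressed as percent inhibition from 0 to 100.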

corn (Zea mays L.) [2] = assay: as above
Method in brief: as §1

[3] = test system: crabgrass (Digitaria sanquinalis L.); assay: as above
Method in brief: as §1

[4] = test system: green foxtail (Setaria viridis L.); assay: as above
Method in brief: (§2)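 Sow seeds in upland soil pots; at target leaf stage (wild oat 0.4–1.2, rice 0.2–2.7, foxtail 0.5–3.2, soybean primary leaf) spray formulated compound in water, 1,000 L/ha, 0.1 vol % surfactant. Score inhibition visually at day 14, 0–100%.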

[5] = test system: italian ryegrass (Lolium multiflorum Lam.); assay: as above
Method in brief: as §1

[6] = test system: redroot pigweed (Amaranthus retroflexus L.); assay: as above
Method in brief: as §1

rice (Oryza sativa L.) [7] = assay: as above
Method in brief: as §2

[8] = test system: soybean (Glycine max Merr.); assay: as above
Method in brief: as §2

[9] = test system: wheat (Triticum aestivum L.); assay: as above
Method in brief: as §1

[10] = test system: wild oat (Avena fatua L.); assay: as above
Method in brief: as §2

[11] = test system: barnyardgrass (Echinochloa crus-qalli L.); assay: Test Example 2: soil application on the day after sowing, growth inhibition rate on 14th day
Method in brief: (§3)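 Field soil in 1/300,000 ha pots was sown, and the next day compounds formulated as wettable powders or emulsifiable concentrates were diluted in water (1,000 L/ha) and soil-sprayed at the prescribed active ingredient rates. Growth inhibition was scored visually 14 days later, 0 (untreated) to 100 (complete kill).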

corn (Zea mays L.) [12] = assay: as above
Method in brief: as §3

[13] = test system: crabgrass (Digitaris sanquinalis L.); assay: as above
Method in brief: as §3

[14] = test system: green foxtail (Setaria viridis L.); assay: as above
Method in brief: as §3

[15] = test system: prickly sida (Sida spinosa L.); assay: as above
Method in brief: as §3

[16] = test system: redroot pigweed (Amaranthus retroflexus L.); assay: as above
Method in brief: as §3

rice (Oryza sativa L.) [17] = assay: as above
Method in brief: as §3

[18] = test system: soybean (Glycine max Merr.); assay: as above
Method in brief: as §3

[19] = test system: velvetleaf (Abutilon theophrasti MEDIC.); assay: as above
Method in brief: as §3

[20] = test system: wheat (Triticum aestivum L.); assay: as above
Method in brief: as §3

[21] = visual, 0 = non-treated, 100 = complete kill

| SMILES | Growth inhibition rate (%) Barnyardgrass [11] [%] | Growth inhibition rate (%) Corn (corn (Zea mays L.) [12]) [%] | Growth inhibition rate (%) Crabgrass [13] [%] | Growth inhibition rate (%) Green foxtail [14] [%] | Growth inhibition rate (%) Prickly sida [15] [%] | Growth inhibition rate (%) Redroot pigweed [16] [%] | Growth inhibition rate (%) Rice (rice (Oryza sativa L.) [17]) [%] | Growth inhibition rate (%) Soybean [18] [%] | Growth inhibition rate (%) Velvetleaf [19] [%] | Growth inhibition rate (%) Wheat [20] [%] | Growth inhibition rate (%) Barnyardgrass [1] [%] | Growth inhibition rate (%) Corn (corn (Zea mays L.) [2]) [%] | Growth inhibition rate (%) Crabgrass [3] [%] | Growth inhibition rate (%) Green foxtail [4] [%] | Growth inhibition rate (%) Italian ryegrass [5] [%] | Growth inhibition rate (%) Redroot pigweed [6] [%] | Growth inhibition rate (%) Rice (rice (Oryza sativa L.) [7]) [%] | Growth inhibition rate (%) Soybean [8] [%] | Growth inhibition rate (%) Wheat [9] [%] | Growth inhibition rate (%) Wild oat [10] [%] | further results |
| --- | --- | --- | --- | --- | --- | --- | --- | --- | --- | --- | --- | --- | --- | --- | --- | --- | --- | --- | --- | --- | --- |
| Cc1ccc(Oc2cnc3cc(Cl)ccc3n2)cc1-c1c(OC(=O)C(F)(F)F)c(C)nn(C)c1=O [Compound 3-52] | 99 | 0 | 95 | 100 | 0 | 0 | 0 | 0 | 0 | 0 | – | – | – | – | – | – | – | – | – | – | Growth inhibition rate (%) Barnyardgrass [1, 21]: 100%; Growth inhibition rate (%) Corn (corn (Zea mays L.) [2]; [21]): 35%; Growth inhibition rate (%) Crabgrass [3, 21]: 95%; Growth inhibition rate (%) Green foxtail [4, 21]: 100%; Growth inhibition rate (%) Italian ryegrass [5, 21]: 90%; Growth inhibition rate (%) Redroot pigweed [6, 21]: 0%; Growth inhibition rate (%) Rice (rice (Oryza sativa L.) [7]; [21]): 70%; Growth inhibition rate (%) Soybean [8, 21]: 20%; Growth inhibition rate (%) Wheat [9, 21]: 10%; Growth inhibition rate (%) Wild oat [10, 21]: 20% |
| CC(=O)Oc1c(C)nn(C)c(=O)c1-c1cc(Oc2ccc(C(F)(F)F)cn2)ccc1C [Compound 2-61] | 65 | 0 | 50 | 98 | 0 | 0 | 0 | 0 | 0 | 0 | 99 | 95 | 78 | 95 | 93 | 0 | 90 | 0 | 95 | 98 | – |
| Cc1ccc(Oc2cnc3cc(Cl)ccc3n2)cc1-c1c(OS(=O)(=O)C(F)(F)F)c(C)nn(C)c1=O [Compound 3-69] | 93 | 0 | 30 | 95 | 0 | 0 | 0 | 0 | 0 | 0 | – | – | – | – | – | – | – | – | – | – | Growth inhibition rate (%) Barnyardgrass [1, 21]: 100%; Growth inhibition rate (%) Corn (corn (Zea mays L.) [2]; [21]): 20%; Growth inhibition rate (%) Crabgrass [3, 21]: 95%; Growth inhibition rate (%) Green foxtail [4, 21]: 100%; Growth inhibition rate (%) Italian ryegrass [5, 21]: 99%; Growth inhibition rate (%) Redroot pigweed [6, 21]: 0%; Growth inhibition rate (%) Rice (rice (Oryza sativa L.) [7]; [21]): 30%; Growth inhibition rate (%) Soybean [8, 21]: 0%; Growth inhibition rate (%) Wheat [9, 21]: 98%; Growth inhibition rate (%) Wild oat [10, 21]: 99% |
| CCc1ccc(Oc2nc3ccc(Cl)cc3s2)cc1-c1c(O)c(C)nn(C)c1=O [Compound 2-150] | 100 | 0 | 90 | 98 | 75 | 100 | 0 | 0 | 0 | 0 | 100 | 30 | 60 | 98 | 98 | 0 | 30 | 0 | 75 | 50 | – |
| Cc1nn(C)c(=O)c(-c2cc(Oc3nc4ccc(Cl)cc4o3)ccc2OC(F)(F)F)c1O [Compound 2-175] | 100 | 30 | 95 | 99 | 0 | 0 | 90 | 0 | 0 | 0 | 98 | 95 | 98 | 99 | 50 | 0 | 0 | 10 | 0 | 10 | – |
| Cc1ccc(Oc2cnc3cc(Cl)ccc3n2)cc1-c1c(OC(=O)OCCCl)c(C)nn(C)c1=O [Compound 3-59] | 85 | 0 | 0 | 80 | 0 | 0 | 0 | 0 | 0 | 0 | – | – | – | – | – | – | – | – | – | – | Growth inhibition rate (%) Barnyardgrass [1, 21]: 99%; Growth inhibition rate (%) Corn (corn (Zea mays L.) [2]; [21]): 0%; Growth inhibition rate (%) Crabgrass [3, 21]: 98%; Growth inhibition rate (%) Green foxtail [4, 21]: 100%; Growth inhibition rate (%) Italian ryegrass [5, 21]: 93%; Growth inhibition rate (%) Redroot pigweed [6, 21]: 0%; Growth inhibition rate (%) Rice (rice (Oryza sativa L.) [7]; [21]): 0%; Growth inhibition rate (%) Soybean [8, 21]: 20%; Growth inhibition rate (%) Wheat [9, 21]: 65%; Growth inhibition rate (%) Wild oat [10, 21]: 93% |
| Cc1ccc(Oc2ncc(C(F)(F)F)cc2Cl)cc1-c1c(OC(=O)OC(C)(C)C)c(C)nn(C)c1=O [1-59] | 100 | 0 | 100 | 99 | 0 | 0 | 20 | 0 | 0 | 0 | 100 | 98 | 100 | 100 | 98 | 0 | 40 | 0 | 93 | 99 | – |
| CCn1nc(C)c(O)c(-c2cc(Oc3nc4ccc(Cl)cc4o3)ccc2C)c1=O [Compound 2-176] | 100 | 0 | 98 | 99 | 0 | 0 | 60 | 0 | 0 | 0 | 100 | 80 | 99 | 100 | 85 | 0 | 10 | 0 | 0 | 25 | – |
